Measurements: the NIST ThermoML archive (doi:10.1016/j.jct.2005.02.003)

Experiment: molar heat capacity at constant pressure
Details: 101.33 kPa, Liquid

CC(C)COC(C)(C)C [isobutyl tert-butyl ether]
Details	molar heat capacity at constant pressure [J/K/mol]
240.05 K	243.3
240.77 K	243.8
241.5 K	243.9
242.22 K	244.6
242.94 K	245.2
243.67 K	244.9
244.39 K	244.9
245.12 K	245.9
246.57 K	247
247.3 K	245.8
248.03 K	247
248.76 K	247.9
249.49 K	247.9
250 K	247.9
250.22 K	248.3
251.77 K	248
252.51 K	248.4
253.24 K	249
253.98 K	249.8
254.72 K	250.5
255.46 K	250.1
256.2 K	251
256.95 K	251.3
257.7 K	250.7
258.45 K	251.2
259.2 K	251.6
259.95 K	252.5
260 K	252.2
260.71 K	252.3
261.46 K	252.8
262.22 K	253.6
263.85 K	253.7
264.62 K	254.4
265.39 K	254.4
266.16 K	255.3
266.93 K	255.3
267.7 K	255.9
268.48 K	256.3
269.26 K	256.4
270 K	256.6
270.82 K	256.8
273.2 K	258
274 K	258.2
274.8 K	258.2
275.61 K	258.9
276.58 K	259.7
277.39 K	259.4
279.03 K	261.1
279.86 K	261.4
280 K	260.9
280.69 K	261
282.66 K	262.3
283.22 K	262.3
284.18 K	262.8
284.95 K	263.7
285.74 K	263.4
287.3 K	264
287.56 K	264.4
288.43 K	264.7
288.86 K	264.2
290 K	265.2
290.42 K	264.9
290.43 K	265.6
291.99 K	265.5
295.17 K	266.9
298.15 K	268.7
298.38 K	268.5
299.98 K	269.1
300 K	269.6
301.59 K	269.8
303.21 K	270.6
304.86 K	271.6
306.49 K	272.2
308.3 K	273.1
309.95 K	274
310 K	274
311.6 K	274.4
313.27 K	275.7
314.92 K	276.5
316.58 K	277.2
318.24 K	278.5
319.91 K	278.9
320 K	278.7
321.57 K	279.3
323.26 K	280.8
324.94 K	281.6
326.61 K	282.4
328.29 K	283.1
329.99 K	283.8
330 K	283.7
331.66 K	284.7
333.33 K	285.5
335.19 K	285.9
336.85 K	286.8
338.51 K	287.9
340 K	289
340.16 K	289
341.81 K	290
343.47 K	291.2
345.13 K	291.6
346.78 K	292.3
348.44 K	293
350 K	294.5
350.08 K	294.6
351.76 K	295.7
353.42 K	296.9
